Data as given in PubChem BioAssay (NCI).
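Step 1: Grow cells in 96-well plates. Step 2: Expose to compound for 48 hours at 5 concentrations. Step 3: Interpolate endpoints linearly; if unreached, use highest concentration. TGI marks complete inhibition of growth.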

These molecules were tested on PC-3 prostate (assay: NCI anticancer screen, dose series, 48 h).

SMILES | TGI [µM]
OC1(C(F)(F)F)OCCN=C1C(F)(F)F (configuration not stated) | > 100
N#Cc1c(-c2ccc(Cl)cc2)c2c([nH]c1=O)-c1ccccc1SC2 | > 100
CCCC[C@@H]1CCN2C[C@@H](O)[C@@H](O)[C@@H]2[C@H]1O | > 100

Each molecule was assayed on IGROV1 ovarian (assay: NCI anticancer screen, dose series, 48 h).

SMILES | TGI [µM]
CC1(C)CC(=O)c2[nH]c3ccccc3c2CC(=O)NCCc2cn1cn2 | > 100
CCOC(=O)c1c(NC(=O)c2cccs2)sc2c1CCCC2 | > 100
Nc1ccc(-c2nc3cc(F)ccc3s2)cc1Cl | 42.9
OC1(C(F)(F)F)OCCN=C1C(F)(F)F (configuration not stated) | > 100
N#Cc1c(-c2ccc(Cl)cc2)c2c([nH]c1=O)-c1ccccc1SC2 | > 100
CCCC[C@@H]1CCN2C[C@@H](O)[C@@H](O)[C@@H]2[C@H]1O | > 100

The molecules below were run on DU-145 prostate (assay: NCI anticancer screen, dose series, 48 h).

SMILES | TGI [µM]
CC1(C)CC(=O)c2[nH]c3ccccc3c2CC(=O)NCCc2cn1cn2 | > 100
CCOC(=O)c1c(NC(=O)c2cccs2)sc2c1CCCC2 | > 100
Nc1ccc(-c2nc3cc(F)ccc3s2)cc1Cl | > 100
OC1(C(F)(F)F)OCCN=C1C(F)(F)F (configuration not stated) | > 100
N#Cc1c(-c2ccc(Cl)cc2)c2c([nH]c1=O)-c1ccccc1SC2 | > 100
CCCC[C@@H]1CCN2C[C@@H](O)[C@@H](O)[C@@H]2[C@H]1O | > 100

These molecules were tested on OVCAR-8 ovarian (assay: NCI anticancer screen, dose series, 48 h).

SMILES | TGI [µM]
CC1(C)CC(=O)c2[nH]c3ccccc3c2CC(=O)NCCc2cn1cn2 | > 100
CCOC(=O)c1c(NC(=O)c2cccs2)sc2c1CCCC2 | > 100
Nc1ccc(-c2nc3cc(F)ccc3s2)cc1Cl | > 100
OC1(C(F)(F)F)OCCN=C1C(F)(F)F (configuration not stated) | > 100
N#Cc1c(-c2ccc(Cl)cc2)c2c([nH]c1=O)-c1ccccc1SC2 | > 100
CCCC[C@@H]1CCN2C[C@@H](O)[C@@H](O)[C@@H]2[C@H]1O | > 100

Each molecule was assayed on HOP-92 NSCLC (assay: NCI anticancer screen, dose series, 48 h).

SMILES | TGI [µM]
CC1(C)CC(=O)c2[nH]c3ccccc3c2CC(=O)NCCc2cn1cn2 | > 100
CCOC(=O)c1c(NC(=O)c2cccs2)sc2c1CCCC2 | > 100
Nc1ccc(-c2nc3cc(F)ccc3s2)cc1Cl | > 78.9
OC1(C(F)(F)F)OCCN=C1C(F)(F)F (configuration not stated) | > 100
N#Cc1c(-c2ccc(Cl)cc2)c2c([nH]c1=O)-c1ccccc1SC2 | 71.9
CCCC[C@@H]1CCN2C[C@@H](O)[C@@H](O)[C@@H]2[C@H]1O | > 100

These molecules were tested on SNB-19 CNS (assay: NCI anticancer screen, dose series, 48 h).

SMILES | TGI [µM]
CC1(C)CC(=O)c2[nH]c3ccccc3c2CC(=O)NCCc2cn1cn2 | > 100
CCOC(=O)c1c(NC(=O)c2cccs2)sc2c1CCCC2 | > 81.2
Nc1ccc(-c2nc3cc(F)ccc3s2)cc1Cl | > 100
OC1(C(F)(F)F)OCCN=C1C(F)(F)F (configuration not stated) | > 100
N#Cc1c(-c2ccc(Cl)cc2)c2c([nH]c1=O)-c1ccccc1SC2 | > 100
CCCC[C@@H]1CCN2C[C@@H](O)[C@@H](O)[C@@H]2[C@H]1O | > 100

These molecules were tested on SK-MEL-5 melanoma (assay: NCI anticancer screen, dose series, 48 h).

SMILES | TGI [µM]
CC1(C)CC(=O)c2[nH]c3ccccc3c2CC(=O)NCCc2cn1cn2 | > 100
CCOC(=O)c1c(NC(=O)c2cccs2)sc2c1CCCC2 | > 100
Nc1ccc(-c2nc3cc(F)ccc3s2)cc1Cl | > 100
OC1(C(F)(F)F)OCCN=C1C(F)(F)F (configuration not stated) | > 100
N#Cc1c(-c2ccc(Cl)cc2)c2c([nH]c1=O)-c1ccccc1SC2 | > 100
CCCC[C@@H]1CCN2C[C@@H](O)[C@@H](O)[C@@H]2[C@H]1O | > 100

Each molecule was assayed on HT29 colon (assay: NCI anticancer screen, dose series, 48 h).

SMILES | TGI [µM]
CC1(C)CC(=O)c2[nH]c3ccccc3c2CC(=O)NCCc2cn1cn2 | > 100
CCOC(=O)c1c(NC(=O)c2cccs2)sc2c1CCCC2 | > 100
Nc1ccc(-c2nc3cc(F)ccc3s2)cc1Cl | > 100
OC1(C(F)(F)F)OCCN=C1C(F)(F)F (configuration not stated) | > 100
N#Cc1c(-c2ccc(Cl)cc2)c2c([nH]c1=O)-c1ccccc1SC2 | > 100
CCCC[C@@H]1CCN2C[C@@H](O)[C@@H](O)[C@@H]2[C@H]1O | > 100

Each molecule was assayed on NCI-H226 lung (assay: NCI anticancer screen, dose series, 48 h).

SMILES | TGI [µM]
CC1(C)CC(=O)c2[nH]c3ccccc3c2CC(=O)NCCc2cn1cn2 | > 100
CCOC(=O)c1c(NC(=O)c2cccs2)sc2c1CCCC2 | > 100
Nc1ccc(-c2nc3cc(F)ccc3s2)cc1Cl | 5.04
OC1(C(F)(F)F)OCCN=C1C(F)(F)F (configuration not stated) | > 100
N#Cc1c(-c2ccc(Cl)cc2)c2c([nH]c1=O)-c1ccccc1SC2 | > 100
CCCC[C@@H]1CCN2C[C@@H](O)[C@@H](O)[C@@H]2[C@H]1O | > 100

Each molecule was assayed on MDA-MB-231 breast (assay: NCI anticancer screen, dose series, 48 h).

SMILES | TGI [µM]
CC1(C)CC(=O)c2[nH]c3ccccc3c2CC(=O)NCCc2cn1cn2 | > 100
CCOC(=O)c1c(NC(=O)c2cccs2)sc2c1CCCC2 | 69.8
Nc1ccc(-c2nc3cc(F)ccc3s2)cc1Cl | > 100
OC1(C(F)(F)F)OCCN=C1C(F)(F)F (configuration not stated) | > 100
N#Cc1c(-c2ccc(Cl)cc2)c2c([nH]c1=O)-c1ccccc1SC2 | > 100
CCCC[C@@H]1CCN2C[C@@H](O)[C@@H](O)[C@@H]2[C@H]1O | > 100
